In article PMC3511435, “A Transposon-Derived DNA Polymerase from Entamoeba histolytica Displays Intrinsic Strand Displacement, Processivity and Lesion Bypass” (PLoS ONE, 2012):

Tested on: T1, EhDNApolB2
T1 construct: N-terminal 153 residues deleted, 660-aa C-terminal exonuclease and polymerase region, pCOLD I vector (IMAC-purified), E. coli BL21 DE3 Rosetta II, 78 kDa
Test: primer extension on M13mp18 ssDNA, denaturing gel, phosphorimaging
Format: biochemical, Entamoeba histolytica
Conditions: 25 µM dNTPs; 1 nM 32P-labelled 17mer primer / circular M13mp18 ssDNA; 20 nM enzyme; 10 min, 37 °C; read-out: reduced by half at a concentration of

SMILES: C[C@@]1(CO)[C@H](O)CC[C@@]2(C)[C@H]1CC[C@H]1C[C@@H]3C[C@@]12CC[C@]3(O)CO [aphidicolin]
- IC50: 242 µM
